According to patent publication US11400058B2, “Intravenous formulations of coenzyme Q10 (CoQ10) and methods of use thereof” (Berg LLC, priority 2010, dated 2022):
Where two headings read alike, the source gives them in different places.

Key:
in vivo [1] = details: beagle, dog, iv
Description: (§2) In the second dog toxicity study, Charles River Study Number 20000334, CoQ10 IV Formulation was administered as short intravenous infusions at the rate of 5.0 mL/min three times a week for four weeks.
(§3) An additional two dogs/sex were included in each group and maintained for a 2-week recovery after treatment. A single test article concentration of 40 mg/mL was provided for use on the study. […] Parameters evaluated included cageside observations, clinical observations, body weight, food consumption, ophthalmoscopy, electrocardiography, clinical pathology, gross pathology, organ weights, and histopathology. Blood samples for determination of the plasma concentrations of CoQ10 IV Formulation were collected pre-dose and at 5, 15, 30 and 60 minutes and at 2, 4, 8 and 24 hours post-dose on Days 1 and 26.

[2] = Sprague Dawley, rat, in vivo, iv
Description: (§4) In the second rat toxicity study, Charles River Study Number 20000328, CoQ10 was administered as short intravenous infusions at the rate of 1.0 mL/min three times a week for four weeks. For the toxicokinetic evaluation, three groups of nine male and nine females received 62.5, 125, and 250 mg/kg CoQ10 IV Formulation (Table 20). On Days 1 and 26, samples were collected from subgroups of three males and three females at 5 and 15 minutes, and at 1, 4, 24 and 48 hr post-dose.
(§5) 4-Week Repeat-Dose Toxicology Study of CoQ10 IV Formulation In Rats: Four groups of young adult Sprague Dawley rats (n=10/sex/group) received the vehicle (PBS containing Poloxamer 188 and DMPC) or the test article at doses of 0, 62.5, 125 and 250 mg/kg by IV injection three times per week (Charles River Laboratories Study Number 20000328; Table 26). An additional 5 rats/sex were included in each group and were maintained after treatment for a 2-week recovery period. […] The vehicle was administered at the same dose volume as the high-dose group. Additionally, three groups of 9 animals/sex served as toxicokinetic (TK) animals and received the test article in the same manner as the main study groups. […] Blood samples for determination of the plasma concentrations of the test article were collected from cohorts of three TK animals per sex per dose group at 5, 15 and 60 minutes and at 4, 24 and 48 hours after dosing on Days 1 and 28 (after the last dose).

in vivo [3] = details: Sprague Dawley, rat, iv
Description: as §4, §5

MCF-7 = test: Effect on Bcl-2 family, p53 and caspases in breast cancer cells; assay type: cell-based; details: MCF-7, 50 and 100 μM
Description: (§1) Effect of CoQ10 on Breast Cancer: In another in vitro study, the effect of CoQ10 (50 and 100 μM) on various members of the Bcl-2 family (bcl-2, bcl-xl, bid, bad, bak, mcl-1, bim, and bax), p53, and caspases 4, 8, 12 in two breast cancer cell lines, MCF-7 and Sk-BR3, was evaluated. The Bcl-2 protein family has been implicated as the major contributing factor to conferral of resistance to cancer therapy.

Sk-BR3 = test: as above; assay type: cell-based; details: Sk-BR3, 50 and 100 μM
Description: as §1

[4] = beagle, dog, in vivo, iv
Description: as §2, §3

[5] = rats, oral; cited from earlier work
[6] = Non-GLP four-week toxicity/toxicokinetic study in macaques (Mannheimer Foundation Study 2010-01); assay type: in vivo, sub-adult male macaques; details: for Tmax: male, macaque, plasma, macaques
Text: Plasma samples for toxicokinetic analysis were collected pre-dose, and at 0.25, 1, 6, 24, and 48 hr postdose on the first day of dosing. Pre-dose, but no post-dose samples were collected on Days 7, 14, 21 and 29. […] The increases for Cmax were slightly greater than directly dose-proportional. The increases for AUC0-t were apparently substantially greater than directly dose-proportional, but the nonlinearity may be in part a reflection of the sampling schedule.

Caspase 3 in HDFa cells = test: Western blot for Caspase 3 protein; assay type: cell-based; details: 24 hours
Description: For the oxygen consumption rate assay, the oxygen consumption rates in the cell lines was determined using the Seahorse apparatus. The caspase 3 activity was determined using a colorimetric method using a commercially available kit according to manufacturer's instructions. The increase in the expression of Caspase 3 as a measure of apoptosis was determined by western blotting analysis using an antibody specific for detection of Caspase 3 protein.
Caspase 3 levels were determined in various cell lines following treatment with the same two CoQ10 N formulations as used above (the first formulation included 4% CoQ10; 3% DMPC; and 93% water, and the second formulation included 4% CoQ10; 3% DMPC; 1.5% Poloxamer P188; and 91.5% water). Specifically, PC-3, HepG2, MCF-7, HDFa and MIAPACA2 cells were treated with the CoQ10 IV formulation and harvested after 24 hours of treatment. The whole cell pellets of these cells were used for Western Blots. Sample volumes equivalent to 10 μg of protein were prepared with Lamelli Loading Dye (LDS) and water and run on a 4-12% Bis-Tris Novel NuPAGE gel on two 10 lane gels (15 μL loaded per lane) as detailed below. […]

COC1=C(OC)C(=O)C(C/C=C(\C)CC/C=C(\C)CC/C=C(\C)CC/C=C(\C)CC/C=C(\C)CC/C=C(\C)CC/C=C(\C)CC/C=C(\C)CC/C=C(\C)CCC=C(C)C)=C(C)C1=O [CoQ10, Coenzyme Q10]
AUC0-t (in vivo [1]; female, 31.25 mg/kg): 1220 µg·h/mL | AUC0-t (in vivo [1]; female, 62.5 mg/kg): 2920 µg·h/mL | AUC0-t (in vivo [1]; female, 125 mg/kg): 12500 µg·h/mL | AUC0-t (in vivo [1]; male, 31.25 mg/kg): 1130 µg·h/mL | AUC0-t (in vivo [1]; male, 62.5 mg/kg): 3350 µg·h/mL | AUC0-t (in vivo [1]; male, 125 mg/kg): 12800 µg·h/mL | AUC0-t ([2]; female, 62.5 mg/kg): 1747 µg·h/mL | AUC0-t ([2]; female, 125 mg/kg): 3859 µg·h/mL | AUC0-t ([2]; female, 250 mg/kg): 8368 µg·h/mL | AUC0-t ([2]; male, 62.5 mg/kg): 1953 µg·h/mL | AUC0-t ([2]; male, 125 mg/kg): 5037 µg·h/mL | AUC0-t ([2]; male, 250 mg/kg): 8873 µg·h/mL | AUC0-t (in vivo [3]; female, 62.5 mg/kg): 2690 µg·h/mL | AUC0-t (in vivo [3]; female, 125 mg/kg): 5110 µg·h/mL | AUC0-t (in vivo [3]; female, 250 mg/kg): 15500 µg·h/mL | AUC0-t (in vivo [3]; male, 62.5 mg/kg): 3000 µg·h/mL | AUC0-t (in vivo [3]; male, 125 mg/kg): 6870 µg·h/mL | AUC0-t (in vivo [3]; male, 250 mg/kg): 16600 µg·h/mL | apoptosis (activation of caspase 3, 6 and 9) (MCF-7): increased apoptosis | levels of the anti-apoptotic members (bcl-xl, mcl-1, bcl-2) (MCF-7): significantly decreased | protein expression of pro-apoptotic members and BH3 subfamily members (bid, bad, bax, bim, bak) (MCF-7): upregulated | apoptosis (activation of caspase 3, 6 and 9) (Sk-BR3): increased apoptosis | levels of the anti-apoptotic members (bcl-xl, mcl-1, bcl-2) (Sk-BR3): significantly decreased | protein expression of pro-apoptotic members and BH3 subfamily members (bid, bad, bax, bim, bak) (Sk-BR3): upregulated | AUC0-t ([4]; female, 31.25 mg/kg): 1207 µg·h/mL | AUC0-t ([4]; female, 62.5 mg/kg): 2735 µg·h/mL | AUC0-t ([4]; female, 125 mg/kg): 7370 µg·h/mL | AUC0-t ([4]; male, 31.25 mg/kg): 1038 µg·h/mL | AUC0-t ([4]; male, 62.5 mg/kg): 2719 µg·h/mL | AUC0-t ([4]; male, 125 mg/kg): 7151 µg·h/mL | orally-administered CoQ10 absorbed [5]: 2-3% | Cmax and AUC0-t versus dose ([6]; macaques, 31.25, 62.5, 125 mg/kg IV, preliminary results): increased with increasing dose | Tmax ([6]; intravenous, one animal): 60 min | Tmax ([6]; 31.25-125 mg/kg IV, first day of dosing): 15 min | intensity of Caspase 3 lower band (Caspase 3 in HDFa cells): decreased
